From PMC5559341 (ACS chemical neuroscience, 2017)

Biological target: GluN1/2C (Rattus norvegicus, UniProt P35439+Q00961)
Assay: TEVC electrophysiology, Xenopus oocytes
Type: cell-based

EC50 [µM]	Structure (SMILES)
> 300	N[C@H](CSCc1ccccc1)C(=O)O [11b, S-benzylated D-cysteine]
206	CCCCC(=O)NC[C@@H](N)C(=O)O [13a, pentanamido analogue 13a]
> 300	CCCCC(=O)NC[C@H](N)C(=O)O [13b]

Second part, the compound before the results:

Structure (SMILES)	EC50 [µM]
N[C@@H](COCc1ccccc1)C(=O)O [8b]	> 300
CCCCSC[C@H](N)C(=O)O [10a, S-Butyl L-cysteine]	> 300
CCCCSC[C@@H](N)C(=O)O [10b, S-Butyl D-cysteine]	> 300
N[C@@H](CSCc1ccccc1)C(=O)O [11a, S-benzyl substituted L-cysteine]	87

Biological target: GluN1/2D (Rattus norvegicus, UniProt P35439+Q62645)
Assay: TEVC electrophysiology, Xenopus oocytes
Type: cell-based

EC50 [µM]	Structure (SMILES)
> 300	N[C@H](CSCc1ccccc1)C(=O)O [11b, S-benzylated D-cysteine]
> 300	CCCCC(=O)NC[C@@H](N)C(=O)O [13a, pentanamido analogue 13a]
> 300	CCCCC(=O)NC[C@H](N)C(=O)O [13b]

The next lines start with the compound.

Structure (SMILES)	EC50 [µM]
N[C@@H](COCc1ccccc1)C(=O)O [8b]	> 300
CCCCSC[C@H](N)C(=O)O [10a, S-Butyl L-cysteine]	> 300
CCCCSC[C@@H](N)C(=O)O [10b, S-Butyl D-cysteine]	> 300
N[C@@H](CSCc1ccccc1)C(=O)O [11a, S-benzyl substituted L-cysteine]	> 300

Biological target: GluN1/2A (Rattus norvegicus, UniProt P35439)
Assay: TEVC electrophysiology, Xenopus oocytes
Type: cell-based

EC50 [µM]	Structure (SMILES)
> 300	CCCCC(=O)NC[C@@H](N)C(=O)O [13a, pentanamido analogue 13a]

Biological target: GluN1/2B (Rattus norvegicus, UniProt P35439+Q00960)
Assay: TEVC electrophysiology, Xenopus oocytes
Type: cell-based

EC50 [µM]	Structure (SMILES)
> 300	N[C@@H](COCc1ccccc1)C(=O)O [8b]
> 300	CCCCSC[C@@H](N)C(=O)O [10b, S-Butyl D-cysteine]
> 300	CCCCC(=O)NC[C@@H](N)C(=O)O [13a, pentanamido analogue 13a]
